Reference: the NIST ThermoML archive (doi:10.1021/je800046k)

Assay: xn = mol fraction of the nth substance listed
Settings: for surface tension liquid-gas: Pendant drop shape; for mass density: 101 kPa, Liquid

Cc1ccc(C)c(C)c1 [1,2,4-trimethylbenzene] + CC(=O)OC(C)C
Settings | mass density [kg/m3] | surface tension liquid-gas [mN/m]
298.15 K, x2 = 0 | 871.71 | 29.3
298.15 K, x2 = 0.0492 | 871.44 | 28.8
298.15 K, x2 = 0.101 | 871.17 | 28.25
298.15 K, x2 = 0.1507 | 870.9 | 27.69
298.15 K, x2 = 0.1995 | 870.64 | 27.13
298.15 K, x2 = 0.251 | 870.36 | 26.6
298.15 K, x2 = 0.3006 | 870.1 | 26.09
298.15 K, x2 = 0.3513 | 869.83 | 25.6
298.15 K, x2 = 0.4008 | 869.56 | 25.15
298.15 K, x2 = 0.45 | 869.3 | 24.75
298.15 K, x2 = 0.4998 | 869.03 | 24.34
298.15 K, x2 = 0.5498 | 868.76 | 23.99
298.15 K, x2 = 0.6007 | 868.49 | 23.64
298.15 K, x2 = 0.6492 | 868.23 | 23.33
298.15 K, x2 = 0.7004 | 867.95 | 23.05
298.15 K, x2 = 0.7501 | 867.68 | 22.78
298.15 K, x2 = 0.7968 | 867.42 | 22.56
298.15 K, x2 = 0.8495 | 867.12 | 22.34
298.15 K, x2 = 0.8995 | 866.84 | 22.15
298.15 K, x2 = 0.9492 | 866.55 | 21.99
308.15 K, x2 = 0 | 863.68 | 28.24
308.15 K, x2 = 0.0488 | 863.27 | 27.69
308.15 K, x2 = 0.0999 | 862.84 | 27.12
308.15 K, x2 = 0.1499 | 862.42 | 26.56
308.15 K, x2 = 0.2002 | 861.99 | 26
308.15 K, x2 = 0.2504 | 861.56 | 25.48
308.15 K, x2 = 0.3001 | 861.13 | 24.96
308.15 K, x2 = 0.3519 | 860.67 | 24.47
308.15 K, x2 = 0.4 | 860.24 | 24.04
308.15 K, x2 = 0.45 | 859.79 | 23.62
308.15 K, x2 = 0.4964 | 859.37 | 23.24
308.15 K, x2 = 0.5495 | 858.89 | 22.86
308.15 K, x2 = 0.6008 | 858.42 | 22.51
308.15 K, x2 = 0.6499 | 857.96 | 22.21
308.15 K, x2 = 0.7004 | 857.49 | 21.88
308.15 K, x2 = 0.7494 | 857.03 | 21.67
308.15 K, x2 = 0.7986 | 856.55 | 21.43
308.15 K, x2 = 0.85 | 856.05 | 21.2
308.15 K, x2 = 0.8997 | 855.56 | 21.05
308.15 K, x2 = 0.9498 | 855.05 | 20.89
313.15 K, x2 = 0 | 859.58 | 27.71
313.15 K, x2 = 0.0494 | 859.1 | 27.14
313.15 K, x2 = 0.0983 | 858.61 | 26.56
313.15 K, x2 = 0.1504 | 858.09 | 26
313.15 K, x2 = 0.1999 | 857.59 | 25.44
313.15 K, x2 = 0.2506 | 857.07 | 24.93
313.15 K, x2 = 0.3004 | 856.55 | 24.41
313.15 K, x2 = 0.3508 | 856.02 | 23.92
313.15 K, x2 = 0.3995 | 855.5 | 23.51
313.15 K, x2 = 0.4493 | 854.97 | 23.08
313.15 K, x2 = 0.4992 | 854.43 | 22.65
313.15 K, x2 = 0.5492 | 853.88 | 22.29
313.15 K, x2 = 0.6 | 853.32 | 21.94
313.15 K, x2 = 0.6493 | 852.77 | 21.65
313.15 K, x2 = 0.6995 | 852.2 | 21.33
313.15 K, x2 = 0.7501 | 851.62 | 21.09
313.15 K, x2 = 0.8 | 851.04 | 20.88
313.15 K, x2 = 0.8504 | 850.44 | 20.65
313.15 K, x2 = 0.9004 | 849.84 | 20.52
313.15 K, x2 = 0.9478 | 849.26 | 20.37

Cc1cc(C)cc(C)c1 [1,3,5-trimethylbenzene] + CC(=O)OC(C)C
Settings | mass density [kg/m3] | surface tension liquid-gas [mN/m]
298.15 K, x2 = 0 | 861.12 | 28.05
298.15 K, x2 = 0.0495 | 861.03 | 27.68
298.15 K, x2 = 0.1008 | 861.01 | 27.28
298.15 K, x2 = 0.1504 | 860.99 | 26.92
298.15 K, x2 = 0.199 | 861.02 | 26.52
298.15 K, x2 = 0.2514 | 861.07 | 26.15
298.15 K, x2 = 0.2996 | 861.13 | 25.79
298.15 K, x2 = 0.351 | 861.25 | 25.42
298.15 K, x2 = 0.4009 | 861.36 | 25.07
298.15 K, x2 = 0.4502 | 861.53 | 24.71
298.15 K, x2 = 0.5002 | 861.71 | 24.37
298.15 K, x2 = 0.5497 | 861.96 | 24.05
298.15 K, x2 = 0.6001 | 862.22 | 23.72
298.15 K, x2 = 0.6502 | 862.53 | 23.42
298.15 K, x2 = 0.7003 | 862.88 | 23.14
298.15 K, x2 = 0.7496 | 863.29 | 22.88
298.15 K, x2 = 0.7987 | 863.73 | 22.65
298.15 K, x2 = 0.8498 | 864.28 | 22.46
298.15 K, x2 = 0.8998 | 864.85 | 22.28
298.15 K, x2 = 0.9505 | 865.52 | 22.06
308.15 K, x2 = 0 | 852.94 | 27.21
308.15 K, x2 = 0.0501 | 852.69 | 26.78
308.15 K, x2 = 0.0993 | 852.53 | 26.37
308.15 K, x2 = 0.1514 | 852.38 | 25.94
308.15 K, x2 = 0.2 | 852.27 | 25.55
308.15 K, x2 = 0.2514 | 852.16 | 25.16
308.15 K, x2 = 0.3018 | 852.09 | 24.8
308.15 K, x2 = 0.353 | 852.03 | 24.42
308.15 K, x2 = 0.3991 | 852.01 | 24.06
308.15 K, x2 = 0.4503 | 852 | 23.69
308.15 K, x2 = 0.4993 | 852.03 | 23.35
308.15 K, x2 = 0.5492 | 852.08 | 23.01
308.15 K, x2 = 0.6 | 852.18 | 22.67
308.15 K, x2 = 0.65 | 852.3 | 22.36
308.15 K, x2 = 0.7003 | 852.47 | 22.05
308.15 K, x2 = 0.7499 | 852.68 | 21.79
308.15 K, x2 = 0.7993 | 852.92 | 21.52
308.15 K, x2 = 0.8488 | 853.23 | 21.31
308.15 K, x2 = 0.9004 | 853.61 | 21.14
308.15 K, x2 = 0.9506 | 854.03 | 20.92
313.15 K, x2 = 0 | 848.82 | 26.78
313.15 K, x2 = 0.0498 | 848.53 | 26.33
313.15 K, x2 = 0.1001 | 848.29 | 25.9
313.15 K, x2 = 0.1495 | 848.08 | 25.45
313.15 K, x2 = 0.2006 | 847.88 | 25.06
313.15 K, x2 = 0.25 | 847.71 | 24.67
313.15 K, x2 = 0.3005 | 847.55 | 24.28
313.15 K, x2 = 0.3497 | 847.43 | 23.9
313.15 K, x2 = 0.3998 | 847.3 | 23.54
313.15 K, x2 = 0.4508 | 847.22 | 23.18
313.15 K, x2 = 0.4998 | 847.16 | 22.82
313.15 K, x2 = 0.5496 | 847.13 | 22.49
313.15 K, x2 = 0.6007 | 847.12 | 22.13
313.15 K, x2 = 0.6504 | 847.16 | 21.83
313.15 K, x2 = 0.7 | 847.23 | 21.5
313.15 K, x2 = 0.7495 | 847.33 | 21.22
313.15 K, x2 = 0.7993 | 847.48 | 20.96
313.15 K, x2 = 0.8507 | 847.68 | 20.73
313.15 K, x2 = 0.9008 | 847.93 | 20.52
313.15 K, x2 = 0.9504 | 848.25 | 20.36
